The source of these data is US20240173419A1, “CDK2 DEGRADERS AND USES THEREOF” (Kymera Therapeutics, Inc., priority 2022, published 2024).

Bounds are passed on as bounds.

The target of the assay is T1, CDK2 (Homo sapiens, UniProt P24941).
T1 construct: endogenous in cells; host or cells: MKN1 cells
Description: CDK2 degradation in MKN1 cells (AlphaLISA). The format is cell-based. The settings on record: 14 h incubation; for DC50: read-out: CDK2 degradation 14 h: Mean external-Abs DC50. In outline:
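DC50 from four-parameter logistic fit of AlphaLISA CDK2 signal, corrected for no-cell wells. Lysates came from MKN1 cells, 2e4 per well, exposed 14 h at 37° C to compound at 0.001 nM-10 μM (1:5 series, 11 doses) in 0.1% DMSO.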

With `Cc1cc(S(=O)(=O)NCCCCCCc2cccc3c2n(C)c(=O)n3C2CCC(=O)NC2=O)ccc1Nc1ncc2cc(C(F)F)c(=O)n(C3CCCC3(C)O)c2n1` (stereo not shown) [I-976], the “CDK2 degradation 14 h: Average Dmax %” value is reported as “B (B (>50% -75%))” and the DC50 was under 0.1 µM.
In the case of `CC1CC(NS(=O)(=O)c2ccc(Nc3ncc(C(F)(F)F)c(N4CCCC(C)(O)C4)n3)c(F)c2)CCN1CC1CCN(c2ccc(C3CCC(=O)NC3=O)c(F)c2)CC1` (stereo not shown) [I-1037], the “CDK2 degradation 14 h: Average Dmax %” value is “A (A (>75% o))” and the DC50 is under 0.1 µM.
As for `Cn1c(=O)n(C2CCC(=O)NC2=O)c2ccc(N3CCC(CN4CCC(NS(=O)(=O)c5ccc(Nc6ncc(C(F)(F)F)c(N7CCCC(C)(O)C7)n6)c(F)c5)C(F)C4)CC3)cc21` (stereo not shown) [I-1039], the “CDK2 degradation 14 h: Average Dmax %” value is reported as “A (A (>75% o))” and the DC50 was under 0.1 µM.
For `CC1(O)CCCN(c2nc(Nc3ccc(S(=O)(=O)N4CCN(CC5CCC(Oc6cccc(C7CCC(=O)NC7=O)c6)CC5)CC4)cc3C(F)F)ncc2C(F)(F)F)C1` (stereo not shown) [I-1043] the same measures were “D (D (<25%))” and over 1 µM.
For `CC1(O)CCCN(c2nc(Nc3ccc(S(=O)(=O)N4CCN(CC5CCC(Oc6ccc(C7CCC(=O)NC7=O)cc6)CC5)CC4)cc3C(F)F)ncc2C(F)(F)F)C1` (stereo not shown) [I-1044] the same measures were “D (D (<25%))” and over 1 µM.
For `CN(CC1CCC(NS(=O)(=O)c2ccc(Nc3ncc(C(F)(F)F)c(N4CCCC(C)(O)C4)n3)c(C(F)F)c2)CC1)C1CN(c2ccc(C3CCC(=O)NC3=O)c(F)c2)C1` (stereo not shown) [I-1045] the same measures were “B (B (>50% -75%))” and 0.1 to 0.5 µM.
Consider `CC1CN(CC2CCN(c3ccc(C4CCC(=O)NC4=O)c(F)c3)CC2)CCC1NS(=O)(=O)c1ccc(Nc2ncc(C(F)(F)F)c(N3CCCC(C)(O)C3)n2)c(F)c1` (stereo not shown) [I-1046], for which the “CDK2 degradation 14 h: Average Dmax %” value was “A (A (>75% o))” and the DC50 is under 0.1 µM.
As for `Cc1cc(S(=O)(=O)NC2CCC(CN3CCN(c4ccc(C5CCC(=O)NC5=O)c(Cl)c4)CC3)CC2)ncc1Nc1ncc(C(F)(F)F)c(N2CCCC(C)(O)C2)n1` (stereo not shown) [I-1047], the “CDK2 degradation 14 h: Average Dmax %” value is “A (A (>75% o))” and the DC50 is under 0.1 µM.
Regarding `Cc1nc(S(=O)(=O)NC2CCC(CN3CCN(c4ccc(C5CCC(=O)NC5=O)c(Cl)c4)CC3)CC2)ccc1Nc1ncc(C(F)(F)F)c(N2CCCC(C)(O)C2)n1` (stereo not shown) [I-1048], the “CDK2 degradation 14 h: Average Dmax %” value is “A (A (>75% o))” and the DC50 was under 0.1 µM.
For `Cc1nc(S(=O)(=O)NC2CCC(CN3CCN(c4ccc(C5CCC(=O)NC5=O)c(F)c4)CC3)CC2)ccc1Nc1ncc(C(F)(F)F)c(N2CCCC(C)(O)C2)n1` (stereo not shown) [I-1049] the same measures were “A (A (>75% o))” and under 0.1 µM.
For `CC1(O)CCN(c2nc(Nc3ccc(S(=O)(=O)NC4CCN(CC5CCN(c6ccc(C7CCC(=O)NC7=O)cc6F)CC5)CC4F)cc3F)ncc2C(F)(F)F)CC1` (stereo not shown) [I-1050] the same measures were “A (A (>75% o))” and under 0.1 µM.
Take `CC1(O)CCN(c2nc(Nc3ccc(S(=O)(=O)NC4CCN(CC5CCN(c6ccc(C7CCC(=O)NC7=O)c(F)c6)CC5)CC4F)cc3F)ncc2C(F)(F)F)CC1` (stereo not shown) [I-1051]: the “CDK2 degradation 14 h: Average Dmax %” value was “A (A (>75% o))” and the DC50 is under 0.1 µM.
For `Cc1cc(S(=O)(=O)NC2CCN(CC3CCN(c4ccc(C5CCC(=O)NC5=O)cc4F)CC3)CC2F)ccc1Nc1ncc(C(F)(F)F)c(N2CCCC(C)(O)C2)n1` (stereo not shown) [I-1054] the same measures were “A (A (>75% o))” and under 0.1 µM.
For `Cc1cc(S(=O)(=O)NC2CCN(CC3CCN(c4ccc(C5CCC(=O)NC5=O)cc4F)CC3)CC2F)ccc1Nc1ncc(C(F)(F)F)c(N2CCCC(C)(O)C2)n1` (stereo not shown) [I-1055], the “CDK2 degradation 14 h: Average Dmax %” value is listed as “A (A (>75% o))” and the DC50 is under 0.1 µM.
For `CC1(O)CCCN(c2nc(Nc3ccc(S(=O)(=O)NC4CCN(CC5CCN(c6ccc(C7CCC(=O)NC7=O)c(F)c6)CC5)CC45CC5)cc3F)ncc2C(F)(F)F)C1` (stereo not shown) [I-1056], the “CDK2 degradation 14 h: Average Dmax %” value is on record as “A (A (>75% o))” and the DC50 is under 0.1 µM.
In the case of `CC1(O)CCCN(c2nc(Nc3ccc(S(=O)(=O)NC4CC5CCC(C4)N5CC4CCN(c5ccc(C6CCC(=O)NC6=O)c(F)c5)CC4)cc3F)ncc2C(F)(F)F)C1` (stereo not shown) [I-1057], the “CDK2 degradation 14 h: Average Dmax %” value was “B (B (>50% -75%))” and the DC50 was in the range of 0.1 to 0.5 µM.
On to `CC1CC(NS(=O)(=O)c2ccc(Nc3ncc(C(F)(F)F)c(N4CCCC(C)(O)C4)n3)c(F)c2)CCN1CC1CCN(c2ccc(C3CCC(=O)NC3=O)c(F)c2)CC1` (stereo not shown) [I-1059], for which the “CDK2 degradation 14 h: Average Dmax %” value is “A (A (>75% o))” and the DC50 was under 0.1 µM.
For `CC1CC(NS(=O)(=O)c2ccc(Nc3ncc(C(F)(F)F)c(N4CCCC(C)(O)C4)n3)c(F)c2)CCN1CC1CCN(c2ccc(C3CCC(=O)NC3=O)c(F)c2)CC1` (stereo not shown) [I-1060] the same measures were “A (A (>75% o))” and under 0.1 µM.
For `CC1CN(CC2CCN(c3ccc(C4CCC(=O)NC4=O)c(F)c3)CC2)CCC1NS(=O)(=O)c1ccc(Nc2ncc(C(F)(F)F)c(N3CCCC(C)(O)C3)n2)c(F)c1` (stereo not shown) [I-1061], the “CDK2 degradation 14 h: Average Dmax %” value was “A (A (>75% o))” and the DC50 is under 0.1 µM.
For `CC1CN(CC2CCN(c3ccc(C4CCC(=O)NC4=O)c(F)c3)CC2)CCC1NS(=O)(=O)c1ccc(Nc2ncc(C(F)(F)F)c(N3CCCC(C)(O)C3)n2)c(F)c1` (stereo not shown) [I-1062] the same measures were “A (A (>75% o))” and under 0.1 µM.
For `CC1CN(CC2CCN(c3ccc(C4CCC(=O)NC4=O)c(F)c3)CC2)CCC1NS(=O)(=O)c1ccc(Nc2ncc(C(F)(F)F)c(N3CCCC(C)(O)C3)n2)c(F)c1` (stereo not shown) [I-1063] the same measures were “A (A (>75% o))” and under 0.1 µM.
For `CC1(O)CCCN(c2nc(Nc3ccc(S(=O)(=O)NC4CCC5(CC4)CN(CC4CCN(c6ccc(C7CCC(=O)NC7=O)c(F)c6)CC4)C5)cc3F)ncc2C(F)(F)F)C1` (stereo not shown) [I-1064] the same measures were “A (A (>75% o))” and under 0.1 µM.
In the case of `Cc1nn(C2CCC(=O)NC2=O)c2ccc(N3CCN(CC4CCC(NS(=O)(=O)c5ccc(Nc6ncc(C(F)(F)F)c(N7CCCC(C)(O)C7)n6)c(F)c5)CC4)CC3)cc12` (stereo not shown) [I-1065], the “CDK2 degradation 14 h: Average Dmax %” value was “A (A (>75% o))” and the DC50 is under 0.1 µM.
Take `Cc1cc(S(=O)(=O)NC2CCC(CN3CCN(c4ccc(C5CCC(=O)NC5=O)c(F)c4)CC3)CC2)ncc1Nc1ncc(C(F)(F)F)c(N2CCCC(C)(O)C2)n1` (stereo not shown) [I-1066]: the “CDK2 degradation 14 h: Average Dmax %” value was “A (A (>75% o))” and the DC50 is under 0.1 µM.
For `CC(C1CCN(c2ccc(C3CCC(=O)NC3=O)c(F)c2)CC1)N1CCC(NS(=O)(=O)c2ccc(Nc3ncc(C(F)(F)F)c(N4CCCC(C)(O)C4)n3)c(F)c2)C(F)C1` (stereo not shown) [I-1067] the same measures were “A (A (>75% o))” and under 0.1 µM.
For `CC1(O)CCCN(c2nc(Nc3ccc(S(=O)(=O)NC4CCN(CC5(C)CCN(c6ccc(C7CCC(=O)NC7=O)cc6F)CC5)CC4F)cc3F)ncc2C(F)(F)F)C1` (stereo not shown) [I-1068] the same measures were “A (A (>75% o))” and 0.1 to 0.5 µM.
In the case of `CC1(O)CCCN(c2nc(Nc3ccc(S(=O)(=O)NC4CCN(CC5(C)CCN(c6ccc(C7CCC(=O)NC7=O)c(F)c6)CC5)CC4F)cc3F)ncc2C(F)(F)F)C1` (stereo not shown) [I-1069], the “CDK2 degradation 14 h: Average Dmax %” value is given as “A (A (>75% o))” and the DC50 was under 0.1 µM.
For `COCc1cc(S(=O)(=O)NC2CCC(CN3CCN(c4ccc(C5CCC(=O)NC5=O)c(F)c4)CC3)CC2)ccc1Nc1ncc(C(F)(F)F)c(N2CCCC(C)(O)C2)n1` (stereo not shown) [I-1070] the same measures were “A (A (>75% o))” and under 0.1 µM.
Turning to `Cc1cc(S(=O)(=O)NC2CCC(CN3CCN(c4ccc(C5CCC(=O)NC5=O)c(F)c4)CC3)CC2)ccc1Nc1ncc(C(F)(F)F)c(N2CCCC(C)(O)C2)n1` (stereo not shown) [I-1072], the DC50 is under 0.1 µM.
For the molecule `[2H]C([2H])([2H])c1cc(S(=O)(=O)NC2CCC(CN3CCN(c4ccc(C5CCC(=O)NC5=O)c(F)c4)CC3)CC2)ccc1Nc1ncc(C(F)(F)F)c(N2CCCC(C)(O)C2)n1` (stereo not shown) [I-1072], the “CDK2 degradation 14 h: Average Dmax %” value is listed as “A (A (>75% o))”.
On to `CC1(O)CCCN(c2nc(Nc3ccc(S(=O)(=O)NC4CC(CCN5CCN(c6ccc(C7CCC(=O)NC7=O)c(F)c6)CC5)C4)cc3C(F)F)ncc2C(F)(F)F)C1` (stereo not shown) [I-1073], for which the “CDK2 degradation 14 h: Average Dmax %” value is “B (B (>50% -75%))” and the DC50 is under 0.1 µM.
For `CC1(O)CCC(c2nc(Nc3ccc(S(=O)(=O)NC4CCC(CN5CCN(c6ccc(C7CCC(=O)NC7=O)c(F)c6)CC5)CC4)cc3F)ncc2C(F)(F)F)CC1` (stereo not shown) [I-1074] the same measures were “A (A (>75% o))” and 0.1 to 0.5 µM.
Turning to `CC1(O)CCCN(c2nc(Nc3ccc(S(=O)(=O)NC4CCC(CCN5CCN(c6ccc(C7CCC(=O)NC7=O)c(F)c6)CC5)CC4)cc3C(F)F)ncc2C(F)(F)F)C1` (stereo not shown) [I-1076], the “CDK2 degradation 14 h: Average Dmax %” value is reported as “B (B (>50% -75%))” and the DC50 was 0.1 to 0.5 µM.
Turning to `Cc1cc(S(=O)(=O)NC2CCC(CN3CCN(c4ccc(C5CCC(=O)NC5=O)c(F)c4)CC3)CC2)c(F)cc1Nc1ncc(C(F)(F)F)c(N2CCCC(C)(O)C2)n1` (stereo not shown) [I-1096], the “CDK2 degradation 14 h: Average Dmax %” value was “A (A (>75% o))” and the DC50 was under 0.1 µM.
Consider `Cc1cc(S(=O)(=O)NC2CCC(CN3CCN(c4ccc(C5CCC(=O)NC5=O)c(F)c4)CC3)CC2)cc(F)c1Nc1ncc(C(F)(F)F)c(N2CCCC(C)(O)C2)n1` (stereo not shown) [I-1097], for which the “CDK2 degradation 14 h: Average Dmax %” value is “A (A (>75% o))” and the DC50 was under 0.1 µM.
For `CC1(O)CCCN(c2nc(Nc3ccc(S(=O)(=O)NC4CCC(CN5CCN(c6ccc(C7CCC(=O)NC7=O)cc6)CC5)CC4)cc3Cl)ncc2C(F)(F)F)C1` (stereo not shown) [I-1100] the same measures were “A (A (>75% o))” and under 0.1 µM.

Usually DC50 stands for the concentration at which degradation of the target reaches its halfway point.
